Experiments:
Set-up in all cases: key: 0: no intensity; 1: low intensity; 2: medium intensity; 3: high intensity
[1] = test system: Penicillin binding protein purified from Bacillus stearothermophilus; assay: Detection of Penicillin G after different shaking steps (Example 28)
Method: (§1) A nitrocellulose HF90 membrane (Millipore; length 25 mm) was used as a detection region. The membrane was glued to a polystyrene laminated card (thickness 0.254 mm) 8 mm from the proximal end of the card. Next, the detection zone and control zone were applied onto the nitrocellulose membrane. The detection zone was applied by dispensing 1 mg/ml of a 7ACA-spacer-BSA conjugate in 20 mM KPO4-buffer (pH 7.5) with a Biodot Dispense workstation XYZ 3050 with frontline at 0.2 μl/cm. The control zone was applied by dispensing 0.15 mg/ml of an anti-IgY antibody in 20 mM KPO4-buffer (pH 7.5) comprising 0.675 mg/ml BSA, 5% w/v saccharose and 20 mM NaCl with a Biodot Dispense workstation XYZ 3050 with frontline at 0.8 μl/cm. After drying of the zones, the nitrocellulose membrane was blocked by spraying a solution comprising 10 mM Tris buffer (pH 8) comprising 2% w/v BSA and 0.05% w/v Tween-20 using a Biodot Dispense workstation XYZ 3050 with airjet 3×. The solution was sprayed onto the membrane at a distance of 2 mm below the detection zone. Thereafter, the sample receiving region (VF2 membrane from Millipore; length 1 cm) was glued at the proximal end of the card overlapping 2 mm with the nitrocellulose membrane. The absorbing region (10038 membrane from Millipore; length 20 mm) was glued at the distal end of the card with an overlap of 2 mm on the nitrocellulose membrane. The obtained cards were dried at 37° C. in a dry atmosphere (0% relative humidity). The card was cut in strips of 5.2 mm width and kept at a dry atmosphere (0% relative humidity).
(§2) Streptavidin-coated gold particles were synthesized by reacting colloidal gold (diameter 40 nm; 1 OD/ml) with 10 μg/ml streptavidin. Next, the obtained solution was concentrated by tangential flow filtration, washed and stored in a Tris buffer (pH 8) including NaCN. Penicillin binding protein purified from Bacillus stearothermophilus was biotinylated (1:4) with D-biotinyl-epsilon-aminocaproic acid-N-hydroxysuccinimide ester. Next, the penicillin binding protein-gold conjugate was synthesized by reacting 1.5 μg biotinylated penicillin binding protein with 1 OD streptavidin-coated gold particles for 1 hour, followed by centrifugation at 10,000×g for 5 minutes and resuspension of the obtained pellet in 45 mM bicarbonate buffer comprising 0.1% w/v Triton X-100 (pH 9.6).
(§3) Thereafter, 140-200 mOD of the penicillin binding protein-gold conjugate and 5-20 mOD of the IgY-gold conjugate was solubilized in 100 μl buffer (80 mM Tris buffer comprising 0.01% w/v Triton-X-100, 0.4% w/v BSA, 5% v/v glycerin and 2% w/v saccharose (pH 8.5)) and 0.75 μl of the solution was dispensed per tube and dried for 12 hours at 40° C. The obtained tubes were sealed.
(§4) 150 μl of spiked milk was added per tube containing the dried conjugates. The concentration of penicillin G in the added milk varied from 0 to 4 ng/g (tube 1: 0 ng/g; […]; tube 2: 2 ng/g; tube 3: 3 ng/g; and tube 4: 4 ng/g). The obtained liquid composition was incubated for 2 minutes at 64° C. in an incubator. A test device was put into the tube and incubated for 3 minutes at 64° C. in the incubator. The result was read by eye.
The test was done essentially as described in Example 3, with the proviso that different shaking steps were applied. […]

[2] = test system: Penicillin binding protein purified from Bacillus stearothermophilus; assay: Detection of Penicillin G after storage of the test device at 4° C. (Example 25)
Method: as §1, §2, §3, §4
The test devices were produced as described above in Examples 1 and 2 and stored at 4° C. At different time periods after production, the test device was used to measure penicillin G. The test was done essentially as described in Example 3.

[3] = test system: Penicillin binding protein purified from Bacillus stearothermophilus; assay: Detection of Penicillin G in different dairy matrices (Example 24)
Method: as §1, §2, §3, §4
The test was done essentially as described in Example 3. Instead of raw milk, different dairy matrices were tested. All liquid matrices were measured as such and all powders were first dispersed in water. For milk powder 20 g was dispersed in 250 g distilled water and for whey powder 7.1 g was dispersed in 100 g distilled water.

[4] = test system: Penicillin binding protein purified from Bacillus stearothermophilus; assay: Detection of Penicillin G, test done at different temperatures (Example 29)
Method: as §1, §2, §3, §4
The test was done essentially as described in Example 3, with the proviso that the test was done at different temperatures (4° C., 20° C. or 31.5° C.).

Intensity of detection zone ([1]; Pen G 3 ppb, Method a, no shaking steps (0 ppb gave 2, control zone 1)): 1
Intensity of detection zone ([1]; Pen G 3 ppb, Method b, one shaking step (10 seconds) after incubation): 2
Intensity of detection zone ([1]; Pen G 3 ppb, Method c, one shaking step (10 seconds) before incubation): 2
Intensity of detection zone ([1]; Pen G 3 ppb, Method d, shaking 5 seconds before and 10 seconds after incubation): 2
Intensity of detection zone ([1]; Pen G 3 ppb, Method e, shaking 10 seconds before and 10 seconds after incubation): 2
Intensity of detection zone ([1]; Pen G 4 ppb, Method a, no shaking steps (0 ppb gave 2, control zone 1)): 1
Intensity of detection zone ([1]; Pen G 4 ppb, Method b, one shaking step (10 seconds) after incubation): 1
Intensity of detection zone ([1]; Pen G 4 ppb, Method c, one shaking step (10 seconds) before incubation): 1
Intensity of detection zone ([1]; Pen G 4 ppb, Method d, shaking 5 seconds before and 10 seconds after incubation): 1
Intensity of detection zone ([1]; Pen G 4 ppb, Method e, shaking 10 seconds before and 10 seconds after incubation): 1
Intensity of detection zone ([2]; Pen G 3 ppb, test device stored 0 weeks at 4° C.): 2
Intensity of detection zone ([2]; Pen G 3 ppb, test device stored 4 weeks at 4° C.): 2
Intensity of detection zone ([2]; Pen G 3 ppb, test device stored 7 weeks at 4° C.): 2
Intensity of detection zone ([2]; Pen G 3 ppb, test device stored 15 weeks at 4° C.): 2
Intensity of detection zone ([2]; Pen G 3 ppb, test device stored 18 weeks at 4° C.): 2
Intensity of detection zone ([2]; Pen G 3 ppb, test device stored 26 weeks at 4° C.): 2
Intensity of detection zone ([2]; Pen G 4 ppb, test device stored 0 weeks at 4° C.): 1
Intensity of detection zone ([2]; Pen G 4 ppb, test device stored 4 weeks at 4° C.): 1
Intensity of detection zone ([2]; Pen G 4 ppb, test device stored 7 weeks at 4° C.): 1
Intensity of detection zone ([2]; Pen G 4 ppb, test device stored 15 weeks at 4° C.): 1
Intensity of detection zone ([2]; Pen G 4 ppb, test device stored 18 weeks at 4° C.): 1
Intensity of detection zone ([2]; Pen G 4 ppb, test device stored 26 weeks at 4° C.): 1
Intensity of detection zone ([3]; Pen G 3 ppb, Cocoa): 2
Intensity of detection zone ([3]; Pen G 3 ppb, Cream 10%): 2
Intensity of detection zone ([3]; Pen G 3 ppb, Cream 40%): 2
Intensity of detection zone ([3]; Pen G 3 ppb, Frozen raw buffalo milk (0 ppb gave 1)): 1
Intensity of detection zone ([3]; Pen G 3 ppb, Frozen raw goat milk (0 ppb gave 1)): 1
Intensity of detection zone ([3]; Pen G 3 ppb, Frozen raw milk): 2
Intensity of detection zone ([3]; Pen G 3 ppb, Frozen raw sheep milk (0 ppb gave 1)): 1
Intensity of detection zone ([3]; Pen G 3 ppb, Low fat UHT milk): 2
Intensity of detection zone ([3]; Pen G 3 ppb, Low fat processed milk): 2
Intensity of detection zone ([3]; Pen G 3 ppb, Milk powder (20 g dispersed in 250 g distilled water)): 2
Intensity of detection zone ([3]; Pen G 3 ppb, Pasteurized milk): 2
Intensity of detection zone ([3]; Pen G 3 ppb, UHT milk): 2
Intensity of detection zone ([3]; Pen G 3 ppb, Whey pH 4.5 (0 ppb and control zone gave 0)): 0
Intensity of detection zone ([3]; Pen G 3 ppb, Whey powder (7.1 g dispersed in 100 g distilled water)): 2
Intensity of detection zone ([3]; Pen G 4 ppb, Cocoa): 1
Intensity of detection zone ([3]; Pen G 4 ppb, Cream 10%): 1
Intensity of detection zone ([3]; Pen G 4 ppb, Cream 40%): 2
Intensity of detection zone ([3]; Pen G 4 ppb, Frozen raw buffalo milk (0 ppb gave 1)): 0
Intensity of detection zone ([3]; Pen G 4 ppb, Frozen raw goat milk (0 ppb gave 1)): 0
Intensity of detection zone ([3]; Pen G 4 ppb, Frozen raw milk): 1
Intensity of detection zone ([3]; Pen G 4 ppb, Frozen raw sheep milk (0 ppb gave 1)): 0
Intensity of detection zone ([3]; Pen G 4 ppb, Low fat UHT milk): 1
Intensity of detection zone ([3]; Pen G 4 ppb, Low fat processed milk): 1
Intensity of detection zone ([3]; Pen G 4 ppb, Milk powder (20 g dispersed in 250 g distilled water)): 1
Intensity of detection zone ([3]; Pen G 4 ppb, Pasteurized milk): 1
Intensity of detection zone ([3]; Pen G 4 ppb, UHT milk): 1
Intensity of detection zone ([3]; Pen G 4 ppb, Whey pH 4.5 (0 ppb and control zone gave 0)): 0
Intensity of detection zone ([3]; Pen G 4 ppb, Whey powder (7.1 g dispersed in 100 g distilled water)): 1
Intensity of detection zone ([4]; Pen G 3 ppb, test done at temperature 4 ° C.): 2
Intensity of detection zone ([4]; Pen G 3 ppb, test done at temperature 20 ° C.): 2
Intensity of detection zone ([4]; Pen G 3 ppb, test done at temperature 31.5 ° C.): 2
Intensity of detection zone ([4]; Pen G 4 ppb, test done at temperature 4 ° C.): 1
Intensity of detection zone ([4]; Pen G 4 ppb, test done at temperature 20 ° C.): 1
Intensity of detection zone ([4]; Pen G 4 ppb, test done at temperature 31.5 ° C.): 1
SMILES: CC1(C)S[C@@H]2[C@H](NC(=O)Cc3ccccc3)C(=O)N2[C@H]1C(=O)O [Penicillin G]

Reference: patent US9182397B2, “Immunoassay for detecting antibiotics” (DSM IP ASSETS B.V., priority 2011, dated 2015)
